Assay results from patent publication US20250177408A1, “INHIBITOR OF INTERACTION BETWEEN YAP/TAZ AND TEAD, PREPARATION THEREOF, PHARMACEUTICAL COMPOSITION THEREOF AND USE THEREOF” (ETERN BIOPHARMA (SHANGHAI) CO., LTD., priority 2022, published 2025).
Counter-ions that a name gives are not always drawn.

Assays:
[1] = molecular target: YAP-TEAD protein interaction (His-TEAD1 (209-426) protein, Bio-YAP peptide (60-100)) (Homo sapiens, UniProt P28347); experiment: YAP-TEAD protein interaction HTRF experiment; type: binding; conditions: His-TEAD1 (209-426) 10 nM, Bio-YAP peptide 50 nM, read-out: Activity of each compound in blocking YAP-TEAD protein interaction (grades of IC50 values)
Experimental: In this example, the YAP-TEAD protein interaction HTRF experiment was used to detect the activity of each compound in blocking the YAP-TEAD protein interaction.
The experiment was carried out according to the following operation steps:
Step 1: His-TEAD1 (209-426) protein was added to a 384-well detection white plate to a final concentration of 10 nM, and buffer was used as the background signal well. The compounds to be tested were subjected to 3-fold dilution and a total of 10 concentration gradients were set up, and each diluted solution was mixed well. A certain volume of the compound to be tested was added to each well separately, 2 replicates were set for each concentration, and the final concentration of DMSO was controlled at 1%. Incubation was carried out at room temperature for 20 minutes. The amino acid sequence of TAED1 (209-426) used in this step is shown in SEQ ID NO: 1:
After mixing evenly, the mixture was incubated at room temperature for 10 minutes.
Step 3: Anti-His-Eu cryptate gold and streptavidin-XL665 were diluted according to the instructions and mixed in equal proportions. A certain volume of the detection reagent was added to the well, and the mixture was incubated at room temperature for 1 hour.
Step 4: The signal was detected using an Envision (Perkin Elmer) microplate reader at an excitation wavelength of 320 nm and emission wavelengths of 665 nm and 620 nm.
Step 5: The signal was calculated based on the ratio of Em665/Em620*10000.
(§1) The inhibition percentage (%) was calculated using the following formula: […]
The half-maximal inhibitory concentration (IC50) values were calculated using GraphPad Prism software.

MSTO-211H cells = experiment: Cell proliferation inhibition experiment (CellTiter-Glo); type: cell-based; conditions: Homo sapiens, 96 hours, read-out: Inhibitory activity of each compound on the proliferation of MSTO-211H cells (grades of IC50 values)
Experimental: In this example, the intracellular ATP was quantitatively determined by the CellTiter-Glo luminescence cell viability detection kit to detect the number of living cells in the culture.
Step 1: MSTO-211H (ATCC, CRL-2081TM) or NCI-H2052 (ATCC, CRL-5915TM) cells were inoculated in a 96-well plate at a density of 1500 cells per well with a volume of 100 μL per well, and the cells were incubated overnight in a 37° C., 5% carbon dioxide incubator. The culture medium used was RPMI1640 medium (GIBCO-A10491-01)+10% FBS (GIBCO-10099141C)+1% penicillin/streptomycin (Pen/Strep) (GIBCO-15070-063).
Step 2: The cells were treated with the compounds to be tested. The compounds to be tested were 3-fold diluted, and a total of 9 concentration gradients were set up; a certain volume of DMSO or the compounds to be tested was added to each well, respectively, and 2 replicates were set up for each concentration, and the final concentration of DMSO was controlled to be no higher than 0.5%. The cells were incubated for 96 hours in a 37° C., 5% carbon dioxide incubator.
Step 3: Cell viability was detected in the control group and treatment group using CellTiter-Glo Luminescent Cell Viability Assay kit (Promega, G7570). 50 μL of CellTiter-Glo was added to each well, mixed well, and incubated at room temperature for 10 minutes. The signal was read using En Vision® Multilabel Plate Reader (Perkin Elmer).
as §1
Using Graphpad Prism software, the IC50 values of the compounds inhibiting the CTG signal of cell proliferation activity was calculated.

YAP-TEAD protein interaction (His-TEAD1 (209-426) protein, Bio-YAP peptide (60-100)), sequence (P28347 209-426): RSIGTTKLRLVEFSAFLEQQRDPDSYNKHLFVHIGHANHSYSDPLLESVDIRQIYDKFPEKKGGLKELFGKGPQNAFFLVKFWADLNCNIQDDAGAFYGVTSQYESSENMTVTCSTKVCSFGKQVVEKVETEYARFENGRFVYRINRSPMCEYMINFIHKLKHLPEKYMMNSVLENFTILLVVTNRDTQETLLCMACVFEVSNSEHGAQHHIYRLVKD

SMILES | IC50 [1] | IC50 (MSTO-211H cells)
NC(=O)c1cc2c(c(F)c1-c1c(Cl)c(F)cc3c1C[C@](c1ccccc1)([C@@H]1CCCN1)O3)Oc1c(ncn(CCF)c1=O)O2 (atropisomer, axis not shown) [Compound 137, (S)-7-((S)-5-Chloro-6-fluoro-2-phenyl-2-((S)-pyrrolidin-2-yl)-2,3-dihydrobenzofuran-4-yl)-6-fluoro-3-(2-fluoroethyl)-4-oxo-3,4-dihydrobenzo[5,6][1,4]dioxo [2,3-d]pyrimidine-8-carboxamide] | < 50 nM | < 200 nM
CNC(=O)c1cc2c(c(F)c1-c1c(Cl)c(F)cc3c1C[C@](c1ccccc1)([C@@H]1CCCN1)O3)Oc1c(cnn(CCC(F)(F)F)c1=O)O2 (atropisomer, axis not shown) [Compound 142, (R)-8-((S)-5-Chloro-6-fluoro-2-phenyl-2-((S)-pyrrolidin-2-yl)-2,3-dihydrobenzofuran-4-yl)-9-fluoro-N-methyl-1-oxo-2-(3,3,3-trifluoropropyl)-1,2-dihydrobenzo[5,6][1,4]dioxa[2,3-d]pyridazine-7-carboxamide] | < 50 nM | < 200 nM
CNC(=O)c1cc2c(c(F)c1-c1c(Cl)c(F)cc3c1C[C@](c1ccccc1)([C@@H]1CCCN1)O3)Oc1c(cnn(C3CC(F)(F)C3)c1=O)O2 (atropisomer, axis not shown) [Compound 148, (S)-8-((S)-5-Chloro-6-fluoro-2-phenyl-2-((S)-pyrrolidin-2-yl)-2,3-dihydrobenzofuran-4-yl)-2-(3,3-difluorocyclobutyl)-9-fluoro-N-methyl-1-oxo-1,2-dihydrobenzo [5,6][1,4]dioxo [2,3-d]pyridazine-7-carboxamide] | < 50 nM | < 200 nM
[2H]C1([2H])CC[C@]([2H])([C@@]2(c3ccccc3)Cc3c(cc(F)c(Cl)c3-c3c(C(N)=O)cc4c(c3F)Oc3c(cnn(CC(F)F)c3=O)O4)O2)N1 (atropisomer, axis not shown) [Compound 152, (S)-8-((S)-5-Chloro-6-fluoro-2-phenyl-2-((S)-pyrrolidin-2-yl-2,5,5-d3)-2,3-dihydrobenzofuran-4-yl)-2-(2,2-difluoroethyl)-9-fluoro-1-oxo-1,2-dihydrobenzo [5,6][1,4]dioxo [2,3-d]pyridazine-7-carboxamide] | < 50 nM | < 200 nM
CO[C@H]1C[C@H](CNC[C@@]2(c3ccccc3)Cc3c(cc(F)c(Cl)c3-c3c(C(N)=O)cc4c(c3F)OCc3nn(C)cc3-4)O2)C1 (atropisomer, axis not shown) [Compound 84, (S)-7-((S)-5-Chloro-6-fluoro-2-(((((1r,3S)-3-methoxycyclobutyl)methyl)amino)methyl)-2-phenyl-2,3-dihydrobenzofuran-4-yl)-6-fluoro-2-methyl-2,4-dihydrochromeno[3,4-c]pyrazole-8-carboxamide formate] | < 50 nM | 200 to 500 nM
NC(=O)c1cc2c(c(F)c1-c1c(Cl)c(F)cc3c1C[C@](c1ccccc1)([C@@H]1CCCN1)O3)Oc1cnncc1O2 (atropisomer, axis not shown) [Compound 67, (S)-8-((S)-5-Chloro-6-fluoro-2-phenyl-2-((S)-pyrrolidin-2-yl)-2,3-dihydrobenzofuran-4-yl)-9-fluorobenzo[5,6][1,4]dioxo[2,3-d]pyridazine-7-carboxamide] | < 50 nM | 200 to 500 nM
COCCCNC[C@@]1(c2ccccc2)Cc2c(cc(F)c(Cl)c2-c2c(C(N)=O)cc3c(c2F)OCc2nn(C)cc2-3)O1 (atropisomer, axis not shown) [Compound 83, (S)-7-((S)-5-Chloro-6-fluoro-2-(((3-methoxypropyl)amino)methyl)-2-phenyl-2,3-dihydrobenzofuran-4-yl)-6-fluoro-2-methyl-2,4-dihydrochromeno[3,4-c]pyrazole-8-carboxamide formate] | – | < 200 nM

Continued, in another order:

IC50 [1] | SMILES | IC50 (MSTO-211H cells)
< 50 nM | Cn1cc2c(n1)COc1c-2cc(C#N)c(-c2c(Cl)c(F)cc3c2C[C@](c2ccccc2)([C@@H]2CCCN2)O3)c1F (atropisomer, axis not shown) [Compound 2, (S)-7-((S)-5-Chloro-6-fluoro-2-phenyl-2-((S)-pyrrolidin-2-yl)-2,3-dihydrobenzofuran-4-yl)-6-fluoro-2-methyl-2,4-dihydrochromeno[3,4-c]pyrazole-8-carbonitrile] | 200 to 500 nM
< 50 nM | NC(=O)c1cc2c(c(F)c1-c1c(Cl)c(F)cc3c1C[C@](c1ccccc1)([C@@H]1CCCN1)O3)Oc1nn(C3CC3)c(=O)cc1O2 (atropisomer, axis not shown) [Compound 128, (S)-8-((S)-5-Chloro-6-fluoro-2-phenyl-2-((S)-pyrrolidin-2-yl)-2,3-dihydrobenzofuran-4-yl)-2-cyclopropyl-9-fluoro-3-oxo-2,3-hydrobenzo[5,6][1,4]dioxo [2,3-c]pyridazine-7-carboxamide] | < 200 nM
< 50 nM | NC(=O)c1cc2c(c(F)c1-c1c(Cl)c(F)cc3c1C[C@](c1ccccc1)([C@@H]1CCCN1)O3)OCc1n[nH]nc1-2 (atropisomer, axis not shown) [Compound 7, (S)-7-((S)-5-Chloro-6-fluoro-2-phenyl-2-((S)-pyrrolidin-2-yl)-2,3-dihydrobenzofuran-4-yl)-6-fluoro-2,4-dihydrochromeno[3,4-d][1,2,3]triazole-8-carboxamide] | 200 to 500 nM
< 50 nM | NC(=O)c1cc2c(c(F)c1-c1c(Cl)c(F)cc3c1C[C@](c1ccccc1)([C@@H]1CCCN1)O3)Oc1c(cnn(CCC(F)(F)F)c1=O)O2 (atropisomer, axis not shown) [Compound 133, (S)-8-((S)-5-Chloro-6-fluoro-2-phenyl-2-((S)-pyrrolidin-2-yl)-2,3-dihydrobenzofuran-4-yl)-9-fluoro-2-(3,3,3-trifluoropropyl)-1-oxo-1,2-dihydrobenzo[5,6][1,4]dioxo[2,3-d]pyridazine-7-carboxamide] | < 200 nM
< 50 nM | [2H]C1([2H])CC[C@]([2H])([C@@]2(c3ccccc3)Cc3c(cc(F)c(Cl)c3-c3c(C(=O)NC)cc4c(c3F)Oc3c(cnn(C5CC(F)(F)C5)c3=O)O4)O2)N1 (atropisomer, axis not shown) [Compound 158, (S)-8-((S)-5-Chloro-6-fluoro-2-phenyl-2-((S)-pyrrolidin-2-yl-2,5,5-d3)-2,3-dihydrobenzofuran-4-yl)-2-(3,3-difluorocyclobutyl)-9-fluoro-N-methyl-1-oxo-1,2-dihydrobenzo[5,6][1,4]dioxo [2,3-d]pyridazine-7-carboxamide] | < 200 nM
< 50 nM | Cn1cc2c(n1)COc1c-2cc(C(N)=O)c(-c2c(Cl)c(F)cc3c2C[C@](c2ccccc2)([C@@H]2CC4(CC4)CN2)O3)c1F (atropisomer, axis not shown) [Compound 9, (S)-7-((S)-5-Chloro-6-fluoro-2-phenyl-2-((S)-5-azaspiro[2.4]heptan-6-yl)-2,3-dihydrobenzofuran-4-yl)-6-fluoro-2-methyl-2,4-dihydrochromeno[3,4-c]pyrazole-8-carboxamide hydrochloride] | < 200 nM
< 50 nM | NC(=O)c1cc2c(c(F)c1-c1c(Cl)c(F)cc3c1C[C@](c1ccccc1)([C@@H]1CCCN1)O3)Oc1ncn(CCF)c(=O)c1O2 (atropisomer, axis not shown) [Compound 138, (S)-8-((S)-5-Chloro-6-fluoro-2-phenyl-2-((S)-pyrrolidin-2-yl)-2,3-dihydrobenzofuran-4-yl)-9-fluoro-3-(2-fluoroethyl)-4-oxo-3,4-dihydrobenzo [5,6][1,4]dioxo [2,3-d]pyrimidine-7-carboxamide] | < 200 nM
